Measurements taken from ChEMBL document CHEMBL1141310, “Screening of Indonesian medicinal plant extracts for antibabesial activity and isolation of new quassinoids from Brucea javanica” (J Nat Prod, 2007).
In brackets after ≈: the same amount, converted by molar mass.

System: Babesia gibsoni
Experiment: Antibabesial activity against Babesia gibsoni
Format: functional, organism-based

Row | Structure (SMILES) | IC50 [µg/mL]
1 | CC1=CC(=O)[C@@H](O)[C@]2(C)[C@H]3[C@@H](O)[C@H](O)[C@]4(CO)OC[C@@]35[C@@H](C[C@@H]12)OC(=O)[C@H](O)[C@]54O [YADANZIOLIDE A] | 0.216 (≈ 0.507 µM)
2 | CC1=CC(=O)[C@@H](O)[C@]2(C)[C@H]3[C@@H](O)[C@H](O)[C@]4(C)OC[C@@]35[C@@H](C[C@@H]12)OC(=O)[C@H](O)[C@]54O [BRUCEINE D] | 0.835 (≈ 2.03 µM)
3 | CC(=O)OC(C)(C)/C(C)=C/C(=O)O[C@H]1C(=O)O[C@@H]2C[C@H]3C(C)=C(O)C(=O)C[C@]3(C)[C@H]3[C@@H](O)[C@H](O)[C@@]4(C(=O)O)OC[C@]32[C@@H]14 [BRUCEANTINOL B] | 0.978 (≈ 1.65 µM)
4 | COC(=O)[C@]12OC[C@]34[C@H]([C@@H](O)[C@@H]1O)[C@@]1(C)CC(=O)C(O)=C(C)[C@@H]1C[C@H]3OC(=O)[C@H](OC(=O)/C=C(\C)C(C)(C)OC(C)=O)[C@@H]24 [BRUCEANTINOL] | 0.012 (≈ 0.0198 µM)

Results, then the molecule that gave them:

Row | IC50 [µg/mL] | Structure (SMILES)
5 | 0.103 | CC(=O)NCC(=O)O.N=C(N)c1ccc(/N=N/Nc2ccc(C(=N)N)cc2)cc1 [DIMINAZEN ACETURATE]
6 | 0.107 (≈ 0.19 µM) | COC(=O)[C@]12OC[C@]34[C@H]([C@@H](O)[C@@H]1O)[C@@]1(C)CC(=O)C(O)=C(C)[C@@H]1C[C@H]3OC(=O)[C@H](OC(=O)/C=C(\C)C(C)(C)O)[C@@H]24 [BRUCEINE C]
7 | 0.893 (≈ 1.86 µM) | COC(=O)[C@@]12OC[C@]34[C@H]([C@@H](O)[C@@H]1O)[C@@]1(C)CC(=O)C(O)=C(C)[C@@H]1C[C@H]3OC(=O)[C@H](OC(C)=O)[C@@H]24 [BRUCEINE B]
8 | 0.742 (≈ 1.46 µM) | CC1=C(O)C(=O)C[C@]2(C)[C@H]3[C@@H](O)[C@H](O)[C@@]4(C(=O)O)OC[C@@]35[C@@H](C[C@@H]12)OC(=O)[C@H](OC(=O)CC(C)C)[C@@H]45 [BRUCEINE J]
9 | 0.004 (≈ 0.00765 µM) | COC(=O)[C@@]12OC[C@]34[C@H]([C@@H](O)[C@@H]1O)[C@@]1(C)CC(=O)C(O)=C(C)[C@@H]1C[C@H]3OC(=O)[C@H](OC(=O)CC(C)C)[C@@H]24 [BRUCEINE A]
